Test results from paper PMC7747769 (AIChE journal. American Institute of Chemical Engineers, 2019).
pIC50: −log10 of the molar value.

How the values were obtained:
DR1 [1] = type: binding, human
DR1 [2] = conditions: DR1 and HA306–318 peptide; cited from earlier work

## DNP-PKYVKQNTLKLAT [HA306–318]
DR1 [1]
  SDS stability of DR1 complex: migrated as an SDS-stable heterodimer
DR1 [2]
  pIC50: ~7.47
